In patent US20200247855A1, “THERAPY AND DIAGNOSTICS” (OXFORD UNIVERSITY INNOVATION LIMITED, priority 2017, published 2020):
Residues, ends and D or L forms follow the SMILES beside them. *: point of attachment. FITC = O=C1OC2(c3ccc(O)cc3Oc3cc(O)ccc32)c2ccc(NC(=S)*)cc21

Molecular target: T1, CCL8 (Homo sapiens, UniProt P80075)
T1 construct: SUMO (in-house protein only) (cleaved yes); made in house; host or cells: Escherichia coli RosettaGami 2 (DE3)
T1 sequence (P80075 24-99): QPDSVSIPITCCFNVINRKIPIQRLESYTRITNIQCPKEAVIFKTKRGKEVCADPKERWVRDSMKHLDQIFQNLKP
Test: Fluorescence polarisation (anisotropy) assay
Assay type: binding
Settings: BK1.1FITC Ala mutants, CCL8
Excerpt: FIG. 14. Characterisation of P672_PEP-FITC by fluorescence polarisation. […] Residue C30 was mutated to A to avoid an unpaired cysteine residue. The residues corresponding to the above peptide are wholly contained within the CCL8-binding region of P672_RHIPU transferred in the hybrid evasin P672:EVA1 (SEQ ID 76, see FIG. 5). […] (SEQ ID NO: 90). FIG. 14(A). […] The curve was fitted to the two site-total and non-specific binding model in GraphPad Prism 6. Data are shown as mean and SEM of three independent experiments, with each independent experiment performed as three technical replicates. The affinity constant Kd was calculated in GraphPad Prism from the curve fit with the standard error reported.
FIG. 14(B). […] The measured fluorescence anisotropy (y-axis) of P672_PEP-FITC (50 nM) following binding to a fixed dose (1 μM)) of CCL7, CCL8, CCL18 and CXCL1 (negative control). […] Statistical significance was determined using one-way ANOVA with Sidak's correction for multiple comparisons using Graph Pad Prism 6. **=p<0.005, ****=P<0.00005, ns=not significant.
FIG. 15(C). […] In each case 100 μM (++) or […] (+) of P672_PEP was incubated with P672_PEP-FITC (50 nM)/chemokine (1 μM CCL7 and CCL18; 500 nM CCL8) and the resulting anisotropy measured. […] Experiment carried out in triplicate where each data point is the average of one experiment carried out in technical triplicate. Mean with SEM shown and statistical significance was determined using one-way ANOVA with Sidak's correction for multiple comparisons using Graph Pad Prism 6. *=p<0.05, ***=p<0.0005, ****=P<0.00005, ns=not significant.
Fluorescence polarization assays were performed using a Clariostar (BMG Tech) plate reader with the supplied FITC excitation and emission filters using 96 half area well plates (Corning). The buffer used (FP assay buffer) was 50 mM HEPES, 150 mM NaCl, 0.1% BSA, 0.002% TWEEN-20, 0.2% DMSO, pH 7.4 and the final volume in each well was 30 μL. Polarization was converted to anisotropy using the equation A=(2*P)/(3−P) where P is polarization and A is anisotropy. For each peptide tested the gain was set to 35 mP and adjusted to a well containing fluorescent peptide only. The polarization of the emitted light in the FITC emission channel was then determined. Experiments were performed as two technical and three biological replicates. Screening of P672 peptide fragments was achieved through incubation of each peptide (50 nM) with 1 μM CCL8 (Peprotech) for 30 minutes in FP assay buffer and the resulting anisotropy of the emitted light determined as above. The chemokine cross binding screen was performed by incubating 1 μM chemokine (Peprotech) with 50 nM BK1.1FITC for half an hour in FP assay buffer and the resulting anisotropy of the emitted light determined as above. […] The anisotropy was plotted as a function of CCL8 concentration and fitted to the equation: Y=Bmax*X/(KD+X)+NS*X+Background, where Y is the measured anisotropy, X is the concentration of CCL8 added, Bmax is the maximum binding, KD is the equilibrium dissociation constant, NS is the slope of the nonlinear regression and Background is the anisotropy when no CCL8 is present, in Graph Pad Prism. Displacement assays were carried out with CCL7, CCL8, and CCL18 (Peprotech, 1 μM). […] For all FP assays, the experiments were carried out as two technical and three biological replicates.

Compound	Fold change (Kd versus WT)
CC(C)[C@H](NC(=O)[C@@H]1CCCN1C(=O)[C@H](CCCCN)NC(=O)[C@H](Cc1ccccc1)NC(=O)[C@H](Cc1ccccc1)NC(=O)[C@H](CC(=O)O)NC(=O)[C@H](CCC(=O)O)NC(=O)[C@H](Cc1ccc(O)cc1)NC(=O)[C@H](CC(=O)O)NC(=O)[C@H](CCC(=O)O)NC(=O)[C@H](C)NC(=O)[C@H](CCC(=O)O)NC(=S)Nc1ccc2c(c1)C(=O)OC21c2ccc(O)cc2Oc2cc(O)ccc21)C(=O)N[C@H](C(=O)N[C@@H](C)C(=O)N[C@@H](Cc1ccc(O)cc1)C(=O)N[C@@H](Cc1ccccc1)C(N)=O)[C@@H](C)O [D18A] ({FITC}-EAEDYEDFFKPVTAYF-NH2)	2.5
CC(C)[C@H](NC(=O)[C@@H]1CCCN1C(=O)[C@H](CCCCN)NC(=O)[C@H](Cc1ccccc1)NC(=O)[C@H](Cc1ccccc1)NC(=O)[C@H](CC(=O)O)NC(=O)[C@H](CCC(=O)O)NC(=O)[C@H](Cc1ccc(O)cc1)NC(=O)[C@H](C)NC(=O)[C@H](CCC(=O)O)NC(=O)[C@H](CC(=O)O)NC(=O)[C@H](CCC(=O)O)NC(=S)Nc1ccc2c(c1)C(=O)OC21c2ccc(O)cc2Oc2cc(O)ccc21)C(=O)N[C@H](C(=O)N[C@@H](C)C(=O)N[C@@H](Cc1ccc(O)cc1)C(=O)N[C@@H](Cc1ccccc1)C(N)=O)[C@@H](C)O [D20A] ({FITC}-EDEAYEDFFKPVTAYF-NH2)	1.5
CC(C)[C@H](NC(=O)[C@@H]1CCCN1C(=O)[C@H](CCCCN)NC(=O)[C@H](Cc1ccccc1)NC(=O)[C@H](Cc1ccccc1)NC(=O)[C@H](C)NC(=O)[C@H](CCC(=O)O)NC(=O)[C@H](Cc1ccc(O)cc1)NC(=O)[C@H](CC(=O)O)NC(=O)[C@H](CCC(=O)O)NC(=O)[C@H](CC(=O)O)NC(=O)[C@H](CCC(=O)O)NC(=S)Nc1ccc2c(c1)C(=O)OC21c2ccc(O)cc2Oc2cc(O)ccc21)C(=O)N[C@H](C(=O)N[C@@H](C)C(=O)N[C@@H](Cc1ccc(O)cc1)C(=O)N[C@@H](Cc1ccccc1)C(N)=O)[C@@H](C)O [D23A] ({FITC}-EDEDYEAFFKPVTAYF-NH2)	1.5
CC(C)[C@H](NC(=O)[C@@H]1CCCN1C(=O)[C@H](CCCCN)NC(=O)[C@H](Cc1ccccc1)NC(=O)[C@H](Cc1ccccc1)NC(=O)[C@H](CC(=O)O)NC(=O)[C@H](CCC(=O)O)NC(=O)[C@H](Cc1ccc(O)cc1)NC(=O)[C@H](CC(=O)O)NC(=O)[C@H](CCC(=O)O)NC(=O)[C@H](CC(=O)O)NC(=O)[C@H](C)NC(=S)Nc1ccc2c(c1)C(=O)OC21c2ccc(O)cc2Oc2cc(O)ccc21)C(=O)N[C@H](C(=O)N[C@@H](C)C(=O)N[C@@H](Cc1ccc(O)cc1)C(=O)N[C@@H](Cc1ccccc1)C(N)=O)[C@@H](C)O [E17A] ({FITC}-ADEDYEDFFKPVTAYF-NH2)	1.2
CC(C)[C@H](NC(=O)[C@@H]1CCCN1C(=O)[C@H](CCCCN)NC(=O)[C@H](Cc1ccccc1)NC(=O)[C@H](Cc1ccccc1)NC(=O)[C@H](CC(=O)O)NC(=O)[C@H](CCC(=O)O)NC(=O)[C@H](Cc1ccc(O)cc1)NC(=O)[C@H](CC(=O)O)NC(=O)[C@H](C)NC(=O)[C@H](CC(=O)O)NC(=O)[C@H](CCC(=O)O)NC(=S)Nc1ccc2c(c1)C(=O)OC21c2ccc(O)cc2Oc2cc(O)ccc21)C(=O)N[C@H](C(=O)N[C@@H](C)C(=O)N[C@@H](Cc1ccc(O)cc1)C(=O)N[C@@H](Cc1ccccc1)C(N)=O)[C@@H](C)O [E19A] ({FITC}-EDADYEDFFKPVTAYF-NH2)	2.1
CC(C)[C@H](NC(=O)[C@@H]1CCCN1C(=O)[C@H](CCCCN)NC(=O)[C@H](Cc1ccccc1)NC(=O)[C@H](Cc1ccccc1)NC(=O)[C@H](CC(=O)O)NC(=O)[C@H](C)NC(=O)[C@H](Cc1ccc(O)cc1)NC(=O)[C@H](CC(=O)O)NC(=O)[C@H](CCC(=O)O)NC(=O)[C@H](CC(=O)O)NC(=O)[C@H](CCC(=O)O)NC(=S)Nc1ccc2c(c1)C(=O)OC21c2ccc(O)cc2Oc2cc(O)ccc21)C(=O)N[C@H](C(=O)N[C@@H](C)C(=O)N[C@@H](Cc1ccc(O)cc1)C(=O)N[C@@H](Cc1ccccc1)C(N)=O)[C@@H](C)O [E22A] ({FITC}-EDEDYADFFKPVTAYF-NH2)	4.0
CC(C)[C@H](NC(=O)[C@@H]1CCCN1C(=O)[C@H](CCCCN)NC(=O)[C@H](Cc1ccccc1)NC(=O)[C@H](C)NC(=O)[C@H](CC(=O)O)NC(=O)[C@H](CCC(=O)O)NC(=O)[C@H](Cc1ccc(O)cc1)NC(=O)[C@H](CC(=O)O)NC(=O)[C@H](CCC(=O)O)NC(=O)[C@H](CC(=O)O)NC(=O)[C@H](CCC(=O)O)NC(=S)Nc1ccc2c(c1)C(=O)OC21c2ccc(O)cc2Oc2cc(O)ccc21)C(=O)N[C@H](C(=O)N[C@@H](C)C(=O)N[C@@H](Cc1ccc(O)cc1)C(=O)N[C@@H](Cc1ccccc1)C(N)=O)[C@@H](C)O [F24A] ({FITC}-EDEDYEDAFKPVTAYF-NH2)	1.5
CC(C)[C@H](NC(=O)[C@@H]1CCCN1C(=O)[C@H](CCCCN)NC(=O)[C@H](C)NC(=O)[C@H](Cc1ccccc1)NC(=O)[C@H](CC(=O)O)NC(=O)[C@H](CCC(=O)O)NC(=O)[C@H](Cc1ccc(O)cc1)NC(=O)[C@H](CC(=O)O)NC(=O)[C@H](CCC(=O)O)NC(=O)[C@H](CC(=O)O)NC(=O)[C@H](CCC(=O)O)NC(=S)Nc1ccc2c(c1)C(=O)OC21c2ccc(O)cc2Oc2cc(O)ccc21)C(=O)N[C@H](C(=O)N[C@@H](C)C(=O)N[C@@H](Cc1ccc(O)cc1)C(=O)N[C@@H](Cc1ccccc1)C(N)=O)[C@@H](C)O [F25A] ({FITC}-EDEDYEDFAKPVTAYF-NH2)	4.6
CC(C)[C@H](NC(=O)[C@@H]1CCCN1C(=O)[C@H](CCCCN)NC(=O)[C@H](Cc1ccccc1)NC(=O)[C@H](Cc1ccccc1)NC(=O)[C@H](CC(=O)O)NC(=O)[C@H](CCC(=O)O)NC(=O)[C@H](Cc1ccc(O)cc1)NC(=O)[C@H](CC(=O)O)NC(=O)[C@H](CCC(=O)O)NC(=O)[C@H](CC(=O)O)NC(=O)[C@H](CCC(=O)O)NC(=S)Nc1ccc2c(c1)C(=O)OC21c2ccc(O)cc2Oc2cc(O)ccc21)C(=O)N[C@H](C(=O)N[C@@H](C)C(=O)N[C@@H](Cc1ccc(O)cc1)C(=O)N[C@@H](C)C(N)=O)[C@@H](C)O [F32A] ({FITC}-EDEDYEDFFKPVTAYA-NH2)	2.3
CC(C)[C@H](NC(=O)[C@@H]1CCCN1C(=O)[C@H](C)NC(=O)[C@H](Cc1ccccc1)NC(=O)[C@H](Cc1ccccc1)NC(=O)[C@H](CC(=O)O)NC(=O)[C@H](CCC(=O)O)NC(=O)[C@H](Cc1ccc(O)cc1)NC(=O)[C@H](CC(=O)O)NC(=O)[C@H](CCC(=O)O)NC(=O)[C@H](CC(=O)O)NC(=O)[C@H](CCC(=O)O)NC(=S)Nc1ccc2c(c1)C(=O)OC21c2ccc(O)cc2Oc2cc(O)ccc21)C(=O)N[C@H](C(=O)N[C@@H](C)C(=O)N[C@@H](Cc1ccc(O)cc1)C(=O)N[C@@H](Cc1ccccc1)C(N)=O)[C@@H](C)O [K26A] ({FITC}-EDEDYEDFFAPVTAYF-NH2)	0.8
CC(C)[C@H](NC(=O)[C@@H]1CCCN1C(=O)[C@H](CCCCN)NC(=O)[C@H](Cc1ccccc1)NC(=O)[C@H](Cc1ccccc1)NC(=O)[C@H](CC(=O)O)NC(=O)[C@H](CCC(=O)O)NC(=O)[C@H](Cc1ccc(O)cc1)NC(=O)[C@H](CC(=O)O)NC(=O)[C@H](CCC(=O)O)NC(=O)[C@H](CC(=O)O)NC(=O)[C@H](CCC(=O)O)NC(=S)Nc1ccc2c(c1)C(=O)OC21c2ccc(O)cc2Oc2cc(O)ccc21)C(=O)N[C@@H](C)C(=O)N[C@@H](C)C(=O)N[C@@H](Cc1ccc(O)cc1)C(=O)N[C@@H](Cc1ccccc1)C(N)=O [T29A] ({FITC}-EDEDYEDFFKPVAAYF-NH2)	2.0
